The target of test [1] is T1, (UniProt G7TDB2).
T1 construct: gene XOC_2102
The experiment in a line: biochemical.

For test [2], the target named is T2, XOC_4190ΔG.
T2 construct: gene XOC_4190

Test [3] concerns the target T3, (UniProt G7TKC9).
T3 construct: gene XOC_4190
Kind of test: biochemical.

For orientation: Kd means the free concentration of one partner at which half of the binding sites on the other are occupied at equilibrium, for simple one-to-one binding. A low value points to higher affinity.

T1 sequence (G7TDB2 1-689): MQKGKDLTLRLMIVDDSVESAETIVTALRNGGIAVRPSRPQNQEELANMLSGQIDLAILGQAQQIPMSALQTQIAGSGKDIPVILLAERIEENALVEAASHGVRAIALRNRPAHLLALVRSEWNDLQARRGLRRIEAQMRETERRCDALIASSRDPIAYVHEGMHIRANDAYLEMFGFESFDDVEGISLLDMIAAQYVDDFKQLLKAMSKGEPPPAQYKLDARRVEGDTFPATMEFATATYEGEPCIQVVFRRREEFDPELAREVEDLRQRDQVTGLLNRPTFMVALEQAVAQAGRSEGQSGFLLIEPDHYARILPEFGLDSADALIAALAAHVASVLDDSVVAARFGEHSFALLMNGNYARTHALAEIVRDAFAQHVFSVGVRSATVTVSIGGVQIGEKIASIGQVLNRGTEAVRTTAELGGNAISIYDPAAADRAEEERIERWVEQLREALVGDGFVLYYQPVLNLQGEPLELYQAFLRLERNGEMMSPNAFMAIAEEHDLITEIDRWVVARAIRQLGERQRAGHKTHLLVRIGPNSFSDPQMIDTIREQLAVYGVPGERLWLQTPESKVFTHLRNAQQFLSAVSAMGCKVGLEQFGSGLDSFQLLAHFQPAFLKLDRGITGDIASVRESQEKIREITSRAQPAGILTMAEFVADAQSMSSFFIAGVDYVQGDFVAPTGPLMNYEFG
T3 sequence (G7TKC9 1-656 limits assumed): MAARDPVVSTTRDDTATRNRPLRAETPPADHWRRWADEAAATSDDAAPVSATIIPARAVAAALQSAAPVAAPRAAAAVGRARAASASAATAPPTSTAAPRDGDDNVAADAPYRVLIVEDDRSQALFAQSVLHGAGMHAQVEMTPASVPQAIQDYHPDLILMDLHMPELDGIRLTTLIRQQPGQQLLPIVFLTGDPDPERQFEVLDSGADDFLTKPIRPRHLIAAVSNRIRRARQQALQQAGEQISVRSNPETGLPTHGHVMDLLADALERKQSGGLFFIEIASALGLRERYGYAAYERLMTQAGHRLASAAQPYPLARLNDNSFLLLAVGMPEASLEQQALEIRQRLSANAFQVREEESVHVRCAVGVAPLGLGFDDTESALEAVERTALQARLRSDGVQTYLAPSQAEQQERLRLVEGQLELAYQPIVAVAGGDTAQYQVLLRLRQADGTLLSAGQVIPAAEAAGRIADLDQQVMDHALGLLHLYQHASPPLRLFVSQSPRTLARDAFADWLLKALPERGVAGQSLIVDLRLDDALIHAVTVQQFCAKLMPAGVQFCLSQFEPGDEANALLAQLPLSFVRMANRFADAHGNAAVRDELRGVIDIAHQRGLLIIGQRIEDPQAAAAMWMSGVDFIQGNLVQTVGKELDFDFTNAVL

Regarding `Nc1nc2c(ncn2[C@@H]2O[C@@H]3COP(=O)(O)O[C@H]4[C@@H](O)[C@H](n5cnc6c(=O)[nH]c(N)nc65)O[C@@H]4COP(=O)(O)O[C@H]3[C@H]2O)c(=O)[nH]1` [c-di-GMP], the results for the Kd in test [1], in test [2] and in test [3] were 2900 ± 130 nM, 4.46 ± 0.28 µM and 4.59 ± 0.36 µM, respectively.

Source of the values: publication PMC4823724 (Scientific Reports, 2016).
